Assay: Repeated-treatment efficacy for removing an intravenous dose of 238Pu (excretion, tissue retention, clinical observations), female and male arms
Format: in vivo, Swiss-Webster mice
Details: male mice; for 238Pu percent increase in excretion, Total Excretion / 238Pu percent increase in excretion, Total Feces / 238Pu percent increase in excretion, Total Urine: over untreated control group; for ^238Pu percent tissue reduction, GI Trace / ^238Pu percent tissue reduction, Kidney / ^238Pu percent tissue reduction, Liver / ^238Pu percent tissue reduction, Soft Tissue / ^238Pu percent tissue reduction, Total Body / ^238Pu percent tissue reduction, Total Bone / ^238Pu percent tissue reduction, GI Tract: vs untreated control group
Method: The objective of this study was to characterize the efficacy of 3,4,3-L1(1,2-HOPO) at enhancing elimination from an internal plutonium burden in female and male Swiss-Webster mice administered a soluble citrate complex of ^238Pu and treated multiple times, starting at 24 hours after the exposure. Efficacy was evaluated by comparing the tissue contents, urinary and fecal excretions of ^238Pu in treated animals versus untreated animals.
The medical countermeasure 3,4,3-L1(1,2-HOPO) was administered parenterally (ip) or orally (po) via consecutive injections or gavages (six daily or twelve twice daily) starting at 24 hours post contamination at the following four selected doses: 30 μmol/kg ip, 150 μmol/kg po, 300 μmol/kg po, and 600 μmol/kg po (equivalent to respective approximate human doses range of […], using the accepted conversion system of mouse doses into human equivalent doses—HED—based on body surface area). Oral doses also included the permeability enhancer selected during formulation development work.
• Challenge isotope: ^238Pu • Challenge dose: 25 nCi (i.e., approximately 0.8 μCi/kg) • Route of contamination: Intravenous (iv) tail-vein • Route of treatment: Intraperitoneal Injection (ip) or Oral (po) • Frequency of treatment: Multiple (once- or twice-daily for 6 days) doses, starting 24 hr postcontamination • Treatment dose calculation: Dose calculations (mg/kg or μmol/kg) for the decorporation agent were based on the individual body weight measured after contamination. • Study Duration: 11 days, in-life
c. […] Test article and control dose formulations were prepared within 1 day of dose administration, by weighing out the appropriate amount of test article, dispersing in vehicle. For ip solutions, the test article was used alone, while for oral suspensions, a mixture of test article and excipient (90:10, w:w) was used. The pH was adjusted to 7.0-7.4 for ip administration and 5.0-5.5 for oral administration with sterile NaOH. Dose formulations were prepared at room temperature and filter-sterilized. • Storage: 2-8° C.; refrigerated; protected from light. • Characterization: The concentration of each test article formulation was verified by high-performance liquid chromatography-mass spectrometry. • Test Article Handling: Test, reference, and control article formulations were handled with the use of eye protection, gloves, and a protective laboratory coat. • Correct Dose Assurance: The test article was weighed with calibrated balances. The administration of each dose formulation was properly documented, and the amount administered to each animal recorded.
e. Experimental Procedures (In-Life Evaluations and Euthanasia) • Contamination: Single administration by intravenous (iv) tail-vein injection (0.2 mL injection volume) under isoflurane anesthesia. Three standard 0.2 mL injections were performed into polyethylene bottles and pre-loaded with aliquots of concentrated nitric acid on each injection day. Six female and six male mice were culled for necropsy 1 hr post-contamination and were used as standards. A11 standards were processed and counted together with the final samples to allow verification of the contamination dose. • Dose Administration: Single administration by intraperitoneal injection (ip) or oral gavage (po) under isoflurane anesthesia. • Mortality/Morbidity: Assessed at least once daily. • Clinical Observations: Recorded once daily (4 hr post-dose on day of treatment), or more often as clinical signs warranted. […]

[1] = 30 μmol/kg, IP, 11-day necropsy
[2] = 150 μmol/kg, 2 doses PO, 7-day necropsy
[3] = 300 μmol/kg, 1 dose PO, 7-day necropsy
[4] = 300 μmol/kg, 1 dose PO, 11-day necropsy
[5] = 300 μmol/kg, 2 doses PO, 7-day necropsy
[6] = 300 μmol/kg, PO, 11-day necropsy
[7] = 600 μmol/kg, 1 dose PO, 7-day necropsy
[8] = 600 μmol/kg, 1 dose PO, 11-day necropsy
[9] = 600 μmol/kg, PO, 11-day necropsy
[10] = 600 μmol/kg, dose PO, 7-day necropsy

O=C(NCCCN(CCCCN(CCCNC(=O)c1cccc(=O)n1O)C(=O)c1cccc(=O)n1O)C(=O)c1cccc(=O)n1O)c1cccc(=O)n1O [Formulation 343]
^238Pu excretion, Total Excretion, Avg [1]: 79.89 percent recovered dose
^238Pu excretion, Total Feces, Avg [1]: 48.24 percent recovered dose
^238Pu excretion, Total Urine, Avg [1]: 31.65 percent recovered dose
^238Pu retention, GI Tract, Avg [1]: 0.53 percent recovered dose
^238Pu retention, Kidney, Avg [1]: 0.12 percent recovered dose
^238Pu retention, Liver, Avg [1]: 2.42 percent recovered dose
^238Pu retention, Soft Tissue, Avg [1]: 1.14 percent recovered dose
^238Pu retention, Total Body, Avg [1]: 20.11 percent recovered dose
^238Pu retention, Total Bone, Avg [1]: 15.90 percent recovered dose
238Pu percent increase in excretion, Total Excretion [1]: 168.28%
238Pu percent increase in excretion, Total Feces [1]: 188.96%
238Pu percent increase in excretion, Total Urine [1]: 144.22%
^238Pu percent tissue reduction, GI Trace [1]: 72.95%
^238Pu percent tissue reduction, Kidney [1]: 65.35%
^238Pu percent tissue reduction, Liver [1]: 85.55%
^238Pu percent tissue reduction, Soft Tissue [1]: 67.92%
^238Pu percent tissue reduction, Total Body [1]: 61.72%
^238Pu percent tissue reduction, Total Bone [1]: 46.83%
^238Pu excretion, Total Excretion, Avg [2]: 53.58 percent recovered dose
^238Pu excretion, Total Feces, Avg [2]: 30.26 percent recovered dose
^238Pu excretion, Total Urine, Avg [2]: 23.32 percent recovered dose
^238Pu retention, GI Tract, Avg [2]: 1.67 percent recovered dose
^238Pu retention, Kidney, Avg [2]: 0.31 percent recovered dose
^238Pu retention, Liver, Avg [2]: 21.40 percent recovered dose
^238Pu retention, Soft Tissue, Avg [2]: 3.16 percent recovered dose
^238Pu retention, Total Body, Avg [2]: 46.42 percent recovered dose
^238Pu retention, Total Bone, Avg [2]: 19.87 percent recovered dose
238Pu percent increase in excretion, Total Excretion [2]: 149.61%
238Pu percent increase in excretion, Total Feces [2]: 174.63%
238Pu percent increase in excretion, Total Urine [2]: 126.15%
^238Pu percent tissue reduction, GI Tract [2]: −17.71%
^238Pu percent tissue reduction, Kidney [2]: −4.19%
^238Pu percent tissue reduction, Liver [2]: 18.09%
^238Pu percent tissue reduction, Soft Tissue [2]: −5.31%
^238Pu percent tissue reduction, Total Body [2]: 27.68%
^238Pu percent tissue reduction, Total Bone [2]: 40.39%
^238Pu excretion, Total Excretion, Avg [3]: 64.11 percent recovered dose
^238Pu excretion, Total Feces, Avg [3]: 40.12 percent recovered dose
^238Pu excretion, Total Urine, Avg [3]: 24.00 percent recovered dose
^238Pu retention, GI Tract, Avg [3]: 1.23 percent recovered dose
^238Pu retention, Kidney, Avg [3]: 0.17 percent recovered dose
^238Pu retention, Liver, Avg [3]: 12.68 percent recovered dose
^238Pu retention, Soft Tissue, Avg [3]: 1.75 percent recovered dose
^238Pu retention, Total Body, Avg [3]: 35.89 percent recovered dose
^238Pu retention, Total Bone, Avg [3]: 20.06 percent recovered dose
238Pu percent increase in excretion, Total Excretion [3]: 162.02%
238Pu percent increase in excretion, Total Feces [3]: 225.83%
238Pu percent increase in excretion, Total Urine [3]: 110.04%
^238Pu percent tissue reduction, GI Tract [3]: 21.76%
^238Pu percent tissue reduction, Kidney [3]: 40.67%
^238Pu percent tissue reduction, Liver [3]: 43.47%
^238Pu percent tissue reduction, Soft Tissue [3]: 34.62%
^238Pu percent tissue reduction, Total Body [3]: 40.61%
^238Pu percent tissue reduction, Total Bone [3]: 40.06%
^238Pu retention, GI Tract, Avg [4]: 1.03 percent recovered dose
^238Pu retention, Kidney, Avg [4]: 0.15 percent recovered dose
^238Pu retention, Liver, Avg [4]: 9.46 percent recovered dose
^238Pu retention, Soft Tissue, Avg [4]: 2.20 percent recovered dose
^238Pu retention, Total Body, Avg [4]: 33.83 percent recovered dose
^238Pu retention, Total Bone, Avg [4]: 20.99 percent recovered dose
^238Pu percent tissue reduction, GI Trace [4]: 30.01%
^238Pu percent tissue reduction, Kidney [4]: 45.60%
^238Pu percent tissue reduction, Liver [4]: 48.32%
^238Pu percent tissue reduction, Soft Tissue [4]: 22.51%
^238Pu percent tissue reduction, Total Body [4]: 36.96%
^238Pu percent tissue reduction, Total Bone [4]: 30.34%
^238Pu excretion, Total Excretion, Avg [5]: 59.71 percent recovered dose
^238Pu excretion, Total Feces, Avg [5]: 34.14 percent recovered dose
^238Pu excretion, Total Urine, Avg [5]: 25.57 percent recovered dose
^238Pu retention, GI Tract, Avg [5]: 1.45 percent recovered dose
^238Pu retention, Kidney, Avg [5]: 0.18 percent recovered dose
^238Pu retention, Liver, Avg [5]: 15.12 percent recovered dose
^238Pu retention, Soft Tissue, Avg [5]: 2.41 percent recovered dose
^238Pu retention, Total Body, Avg [5]: 40.29 percent recovered dose
^238Pu retention, Total Bone, Avg [5]: 21.12 percent recovered dose
238Pu percent increase in excretion, Total Excretion [5]: 166.71%
238Pu percent increase in excretion, Total Feces [5]: 197.01%
238Pu percent increase in excretion, Total Urine [5]: 138.32%
^238Pu percent tissue reduction, GI Tract [5]: −2.24%
^238Pu percent tissue reduction, Kidney [5]: 39.84%
^238Pu percent tissue reduction, Liver [5]: 42.11%
^238Pu percent tissue reduction, Soft Tissue [5]: 19.73%
^238Pu percent tissue reduction, Total Body [5]: 37.23%
^238Pu percent tissue reduction, Total Bone [5]: 36.64%
^238Pu excretion, Total Excretion, Avg [6]: 66.17 percent recovered dose
^238Pu excretion, Total Feces, Avg [6]: 40.33 percent recovered dose
^238Pu excretion, Total Urine, Avg [6]: 25.84 percent recovered dose
238Pu percent increase in excretion, Total Excretion [6]: 142.80%
238Pu percent increase in excretion, Total Feces [6]: 180.35%
238Pu percent increase in excretion, Total Urine [6]: 107.78%
^238Pu excretion, Total Excretion, Avg [7]: 65.66 percent recovered dose
^238Pu excretion, Total Feces, Avg [7]: 40.53 percent recovered dose
^238Pu excretion, Total Urine, Avg [7]: 25.13 percent recovered dose
238Pu percent increase in excretion, Total Excretion [7]: 165.93%
238Pu percent increase in excretion, Total Feces [7]: 228.14%
238Pu percent increase in excretion, Total Urine [7]: 115.25%
^238Pu percent tissue reduction, GI Tract [7]: −3.93%
^238Pu percent tissue reduction, Kidney [7]: 11.13%
^238Pu percent tissue reduction, Liver [7]: 44.57%
^238Pu percent tissue reduction, Soft Tissue [7]: 17.40%
^238Pu percent tissue reduction, Total Body [7]: 43.17%
^238Pu percent tissue reduction, Total Bone [7]: 46.78%
^238Pu retention, GI Tract, Avg [8]: 0.75 percent recovered dose
^238Pu retention, Kidney, Avg [8]: 0.19 percent recovered dose
^238Pu retention, Liver, Avg [8]: 6.78 percent recovered dose
^238Pu retention, Soft Tissue, Avg [8]: 1.93 percent recovered dose
^238Pu retention, Total Body, Avg [8]: 27.67 percent recovered dose
^238Pu retention, Total Bone, Avg [8]: 18.02 percent recovered dose
^238Pu percent tissue reduction, GI Trace [8]: 49.06%
^238Pu percent tissue reduction, Kidney [8]: 32.19%
^238Pu percent tissue reduction, Liver [8]: 62.99%
^238Pu percent tissue reduction, Soft Tissue [8]: 32.01%
^238Pu percent tissue reduction, Total Body [8]: 48.44%
^238Pu percent tissue reduction, Total Bone [8]: 40.18%
^238Pu excretion, Total Excretion, Avg [9]: 72.33 percent recovered dose
^238Pu excretion, Total Feces, Avg [9]: 44.91 percent recovered dose
^238Pu excretion, Total Urine, Avg [9]: 27.43 percent recovered dose
238Pu percent increase in excretion, Total Excretion [9]: 156.10%
238Pu percent increase in excretion, Total Feces [9]: 200.32%
238Pu percent increase in excretion, Total Urine [9]: 114.39%
^238Pu retention, GI Tract, Avg [10]: 1.63 percent recovered dose
^238Pu retention, Kidney, Avg [10]: 0.25 percent recovered dose
^238Pu retention, Liver, Avg [10]: 12.44 percent recovered dose
^238Pu retention, Soft Tissue, Avg [10]: 2.22 percent recovered dose
^238Pu retention, Total Body, Avg [10]: 34.34 percent recovered dose
^238Pu retention, Total Bone, Avg [10]: 17.81 percent recovered dose

Source: patent US11684614B2, “Formulations of hydroxypyridonate actinide/lanthanide decorporation agents” (priority 2017, dated 2023)
